Assay results from patent US12186348B2, “Glycan strands and oligosaccharides derived from Streptococcus bacteria” (Meharry Medical College, priority 2018, dated 2025).

How the values were obtained:
[1] = tested on: THP-1 cells; experiment: Cell number of G-M treated THP-1 samples; format: cell-based, human
[2] = tested on: HIV IIIB; experiment: HIV IIIB replication in THP-1 cells, nine days culture; format: cell-based; details: THP-1 cells pre-treated 1 hour, qRT-PCR (FIG. 8C)
Description: To determine whether G-M inhibits HIV IIIB replication, THP-1 cells were pre-treated 1 hour with G-M or CC5Ap. 100 ng […] content of IIIB was added into the cell culture to infect the cells overnight. Post-infection, cells were washed 2 times and cultured for nine days. The viral supernatant was subjected to qRT-PCR to measure viral release.

[3] = tested on: MX2; experiment: MX2 expression in THP-1 cells (qRT-PCR, Western-blot); format: cell-based, human; details: THP-1 cells, 50, 100, 200, 300 μg/ml, overnight (FIG. 8B)
Description: (§1) To determine whether CC5Ap induces MX2 expression, THP-1 cells were treated with different doses (units) of CC5Ap for 16 hours. The THP-1 cells were obtained from the NIH AIDS Reagent Program. One unit of CC5Ap is defined as the amount of CC5Ap needed to induce a 3-fold increase in A3G mRNA expression over a period of 16 hours, using 5×10^5 THP-1 cells in 500 μl of cell culture medium. MX2 expression was measured by qRT-PCR. After treatment the cells were either subjected to measuring MX2 expression by Western-blot analyses or infected with HIV-1.
(§2) Synthetic G-M from Toronto Research Chemicals (Cat: A178230) was purchased. The synthetic G-M structure was confirmed by 1H NMR (D2O) and MS. Different doses of G-M were used to treat THP-1 cells. The THP-1 cells were obtained from the NIH AIDS Reagent Program. Specifically, 50 μg, 100 μg, 200 μg and 300 μg/ml G-M (shown in FIGS. 8A-8C as G-M 0.5, 1, 2, 3, respectively) were used to treat THP-1 cells. 1 unit CC5A A/E and CC5Ap were used as the controls. The cells were treated overnight. The mRNA levels of A3G and MX2 were measured by qRT-PCR.

[4] = tested on: Vpr-BlaM containing HIV NL4-3 virus; experiment: HIV-1 viral entry assay (Vpr-BlaM, CCF2) in THP-1 cells; format: cell-based; details: THP-1 cells pre-treated overnight, compared to untreated control (FIGS. 12, 14)
Description: To determine whether the disclosed molecules have effects on HIV-1 viral entry, a sensitive and specific enzyme-based assay developed by Marielle et al (6) was used. THP-1 cells were pre-treated with AMD3100 (HIV entry inhibitor), CC5A/PBS (cell lysate of Streptococcus Cristatus CC5A), and different amounts of G-M (GlcNAc-MurNAc, which is a disaccharide molecule of glycan strain) overnight. PBS treated THP-1 cells were used as the untreated control. After washing, Vpr-BlaM containing HIV NL4-3 virus was used to infect the cells. After washing again, the cells were subjected to CCF2 staining overnight. The following day, the cells were analyzed by FACSAria III for CCF2 (green/FITC-A) and cleaved CCF2 (DAPI-A) florescence.
THP-1 cells were treated with CC5Ap and with cell lysate from Streptococcus Mutant (S. MuP). The protocol described in Example 10 was followed to test the effects of CC5Ap and S.MuP on HIV viral entry.

[5] = tested on: A3G; experiment: A3G mRNA expression in THP-1 cells by qRT-PCR; format: cell-based, human
Description: Equal volumes of an S. cristatus CC5A whole cell extract (CC5A1E), fraction A (glycan strands and peptides), fraction B (glycan strands), and CC5Ap were used to treat THP-1 cells for 16 hours. THP-1 cell line is a human monocytic cell line derived from acute monocytic leukemia. The THP-1 cells were obtained from the NIH AIDS Reagent Program. qRT-PCR was used to detect the relative expression of A3G mRNA in THP-1 cells. PBS treated THP-1 cells were used as a control.
The cell wall of S. Mu was isolated from the bacteria and the isolated cell wall was subjected to the cell component isolation shown in FIG. 2A. Oligosaccharide molecules (from the same amount of bacteria) of CC5Ap and S. Mu were used to treat THP-1 cells. The THP-1 cells were obtained from the NIH AIDS Reagent Program. PBS and CC5A/E were used as the controls. A3G expression was measured by qRT-PCR.
as §1, §2

CC(=O)N[C@H]1[C@H](O[C@H]2[C@H](O[C@H](C)C(=O)O)[C@@H](NC(C)=O)C(O)O[C@@H]2CO)O[C@H](CO)[C@@H](O)[C@@H]1O (stereo partly drawn) [G-M, N-Acetyl-D-glucosamine-(1-4)-N-acetylmuramic acid]
noticeable cell number difference between PBS and treated samples [1]: not observed
HIV IIIB replication (viral release) [2]: inhibits HIV IIIB replication in a dose-dependent manner
MX2 mRNA expression [3]: enhanced A3G mRNA expression (FIG. 8A) and MX2 mRNA expression (FIG. 8B) in a dose-dependent manner
relative HIV entry [4]: reduced HIV entry dramatically
experimentally determined activity of synthetic G-M ([5]; 1 unit = amount inducing 3-fold A3G mRNA increase in 16 hours, 5×10^5 THP-1 cells in 500 μl): 0.005 units/μg
A3G mRNA expression ([5]; THP-1 cells, 50, 100, 200, 300 μg/ml, overnight (FIG. 8A)): enhanced A3G mRNA expression (FIG. 8A) and MX2 mRNA expression (FIG. 8B) in a dose-dependent manner
share of the total CC5Ap activity ([5]; based on G-M concentration of CC5Ap prep (about 100 μg/mL) and activity of synthetic G-M): about 5%
